Measurements as given in PubChem BioAssay AID292 (DTP/NCI, 2004).
“And” between values parts separate entries of the source, which are not always exact repeats. Equal entries are not always repeated. Inconclusive results and toxic doses are left out. How the source made its calls: active means survival T/C of 150% or more; inactive means T/C below 125% in these data.

System: B6C3F1 mice, ip Sarcoma M5076, median survival T/C
Experiment: NCI In Vivo Anticancer Drug Screen. Data for tumor model Sarcoma M5076 (intraperitoneal) in B6C3F1 mice
Details: endpoint: median survival time, higher = longer survival
Procedure, shortened: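 Tumour cells were transplanted into mice, compound or vehicle was given, survival of both groups was followed, and the treated figure was expressed over the control figure.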

[1] = dose: 150.0 mg/kg/injection, schedule: Q04DX004 (ip), vehicle: saline with Tween-80
[2] = dose: 300.0 mg/kg/injection, schedule: Q04DX004 (ip), vehicle: saline with Tween-80
[3] = dose: 600.0 mg/kg/injection, schedule: Q04DX004 (ip), vehicle: saline with Tween-80
[4] = dose: 50.0 mg/kg/injection, schedule: Q04DX004 (ip), vehicle: Klucel (hydroxypropylcellulose) (HPC)
[5] = dose: 100.0 mg/kg/injection, schedule: Q04DX004 (ip), vehicle: Klucel (hydroxypropylcellulose) (HPC)
[6] = dose: 200.0 mg/kg/injection, schedule: Q04DX004 (ip), vehicle: Klucel (hydroxypropylcellulose) (HPC)
[7] = dose: 400.0 mg/kg/injection, schedule: Q04DX004 (ip), vehicle: Klucel (hydroxypropylcellulose) (HPC)
[8] = dose: 50.0 mg/kg/injection, schedule: Q04DX004 (ip), vehicle: saline with Tween-80
[9] = dose: 100.0 mg/kg/injection, schedule: Q04DX004 (ip), vehicle: saline with Tween-80
[10] = dose: 200.0 mg/kg/injection, schedule: Q04DX004 (ip), vehicle: saline with Tween-80
[11] = dose: 400.0 mg/kg/injection, schedule: Q04DX004 (ip), vehicle: saline with Tween-80
[12] = dose: 12.5 mg/kg/injection, schedule: Q04DX004 (ip), vehicle: saline with Tween-80
[13] = dose: 25.0 mg/kg/injection, schedule: Q04DX004 (ip), vehicle: saline with Tween-80

Measured: T/C

Cc1c(O)c(O)c(C)c(CCN)c1O
inactive: dose: 31.0 mg/kg/injection, schedule: Q04DX004 (ip), vehicle: saline with Tween-80 100 % of control | dose: 62.0 mg/kg/injection, schedule: Q04DX004 (ip), vehicle: saline with Tween-80 104 % of control | dose: 112.0 mg/kg/injection, schedule: Q04DX004 (ip), vehicle: saline with Tween-80 94 % of control

C/C=C/C(C)C1OC1(C)C(O)C1COC(=O)C(O)C(OC)C(C)C(=O)C(C)C(O)/C(C)=C/C(C)C(=O)CC(O)C(C)C1=O (stereo not given)
inactive: dose: 2.5 micrograms/kg/injection, schedule: Q04DX004 (ip), vehicle: saline 97 % of control | dose: 5.0 micrograms/kg/injection, schedule: Q04DX004 (ip), vehicle: saline 91 % of control | dose: 10.0 micrograms/kg/injection, schedule: Q04DX004 (ip), vehicle: saline 102 % of control | dose: 20.0 micrograms/kg/injection, schedule: Q04DX004 (ip), vehicle: saline 96 % of control

OCC1OC(n2cnc3cc(Cl)c(Cl)cc32)C(O)C1O (stereo not given)
inactive: [1] 104 % of control | [2] 109 % of control | [3] 107 % of control

CCOC(=O)c1c[nH]c2ccc3c(nc(C)n3C)c2c1=O
inactive: [4] 101 % of control | [5] 104 % of control | [6] 101 % of control | [7] 98 % of control | dose: 800.0 mg/kg/injection, schedule: Q04DX004 (ip), vehicle: Klucel (hydroxypropylcellulose) (HPC) 103 % of control

N#CC1C(=O)NC(=S)NC1CCc1ccccc1 (stereo not given)
inactive: [4] 95 % of control | [5] 100 % of control | [6] 108 % of control

COc1cccc(C2NC(=S)NC(=O)C2C#N)c1 (stereo not given)
inactive: [4] 99 % of control | [5] 99 % of control | [6] 95 % of control | [7] 97 % of control

CN1C(=O)C(=O)N(Cc2ccco2)C1=O
inactive: dose: 31.25 mg/kg/injection, schedule: Q04DX004 (ip), vehicle: Klucel (hydroxypropylcellulose) (HPC) 106 % of control | dose: 62.5 mg/kg/injection, schedule: Q04DX004 (ip), vehicle: Klucel (hydroxypropylcellulose) (HPC) 106 % of control | dose: 125.0 mg/kg/injection, schedule: Q04DX004 (ip), vehicle: Klucel (hydroxypropylcellulose) (HPC) 99 % of control | dose: 250.0 mg/kg/injection, schedule: Q04DX004 (ip), vehicle: Klucel (hydroxypropylcellulose) (HPC) 97 % of control | dose: 500.0 mg/kg/injection, schedule: Q04DX004 (ip), vehicle: Klucel (hydroxypropylcellulose) (HPC) 100 % of control

CC(O)CCC(=O)c1ccoc1 (stereo not given)
inactive: dose: 1.25 mg/kg/injection, schedule: Q03HX012 (ip), vehicle: saline 105 % of control | dose: 2.5 mg/kg/injection, schedule: Q03HX012 (ip), vehicle: saline 95 % of control | dose: 5.0 mg/kg/injection, schedule: Q03HX012 (ip), vehicle: saline 88 % of control | dose: 10.0 mg/kg/injection, schedule: Q03HX012 (ip), vehicle: saline 100 % of control

COc1cc(C2CC(C)(O)Oc3cc4c(cc32)OCO4)cc(OC)c1OC (stereo not given)
inactive: [8] 115 % of control

O=C(Nc1cc(Cl)ccc1C(=O)O)c1cccc(C[n+]2ccccc2)c1
inactive: [8] 100 % of control | [9] 104 % of control | [10] 95 % of control | [11] 88 % of control

O=C(Nc1ccccc1[N+](=O)[O-])C1C(=O)C(=O)N(c2ccccc2[N+](=O)[O-])C1=O (stereo not given)
inactive: [4] 101 % of control | [5] 89 % of control | [6] 92 % of control

Cn1c(=O)ccc2c1nc1ccccc1[n+]2[O-]
inactive: [12] 98 % of control | [13] 99 % of control | [8] 103 % of control | [9] 99 % of control | [10] 94 % of control

CC(C)CC(NC(=O)CF)C(=O)O (stereo not given)
inactive: dose: 1.56 mg/kg/injection, schedule: Q04DX004 (ip), vehicle: saline with Tween-80 98 % of control | dose: 3.12 mg/kg/injection, schedule: Q04DX004 (ip), vehicle: saline with Tween-80 102 % of control | dose: 6.25 mg/kg/injection, schedule: Q04DX004 (ip), vehicle: saline with Tween-80 95 % of control | [12] 97 % of control

Nc1nc(Br)nc2c1ncn2C1CC(O)C(CO)O1 (stereo not given)
inactive: dose: 7.5 mg/kg/injection, schedule: Q03HX009 (ip), vehicle: saline 102 % of control | dose: 15.0 mg/kg/injection, schedule: Q03HX009 (ip), vehicle: saline 118 % of control | dose: 30.0 mg/kg/injection, schedule: Q03HX009 (ip), vehicle: saline 109 % of control | dose: 60.0 mg/kg/injection, schedule: Q03HX009 (ip), vehicle: saline 116 % of control | dose: 120.0 mg/kg/injection, schedule: Q03HX009 (ip), vehicle: saline 113 % of control

Cc1cc(C)cc(N(C2=NCCS2)C2=NCCS2)c1
inactive: [4] 100 % of control | [5] 96 % of control | [6] 92 % of control | [7] 99 % of control

C[CH2][Sn]([CH2]C)([CH2]C(=O)OC)[CH2]C(=O)OC
inactive: dose: 1.5 mg/kg/injection, schedule: Q04DX004 (ip), vehicle: saline with Tween-80 96 % of control | dose: 3.0 mg/kg/injection, schedule: Q04DX004 (ip), vehicle: saline with Tween-80 93 % of control | dose: 6.0 mg/kg/injection, schedule: Q04DX004 (ip), vehicle: saline with Tween-80 95 % of control | dose: 12.0 mg/kg/injection, schedule: Q04DX004 (ip), vehicle: saline with Tween-80 92 % of control

CCOC(=O)C(C(=O)OCC)=C(N)C(Cl)(Cl)Cl
inactive: dose: 25.0 mg/kg/injection, schedule: Q04DX004 (ip), vehicle: Klucel (hydroxypropylcellulose) (HPC) 107 % of control | [4] 103 % of control | [5] 101 % of control | [6] 103 % of control | [7] 96 % of control

COC1CC(C)C(OC)c2cc(O)cc(c2O)NC(=O)/C(C)=C/C=C\C(C)C(OC(N)=O)/C(C)=C\C(C)C1OC (stereo not given)
inactive: dose: 0.63 mg/kg/injection, schedule: Q01DX009 (ip), vehicle: saline + alcohol 115 % of control | dose: 1.25 mg/kg/injection, schedule: Q01DX009 (ip), vehicle: saline + alcohol 111 % of control | dose: 1.8 mg/kg/injection, schedule: Q01DX009 (ip), vehicle: saline + alcohol 122 % of control | dose: 2.5 mg/kg/injection, schedule: Q01DX009 (ip), vehicle: saline + alcohol 107 % of control

COc1cc2oc3c(C)c(=O)cc4oc(-c5ccccc5)cc(c2c2c1CCC(c1ccccc1)O2)c43 (stereo not given)
inactive: dose: 1.75 mg/kg/injection, schedule: Q04DX004 (ip), vehicle: Klucel (hydroxypropylcellulose) (HPC) 109 % of control | dose: 3.5 mg/kg/injection, schedule: Q04DX004 (ip), vehicle: Klucel (hydroxypropylcellulose) (HPC) 102 % of control | dose: 7.0 mg/kg/injection, schedule: Q04DX004 (ip), vehicle: Klucel (hydroxypropylcellulose) (HPC) 102 % of control | [12] 98 % of control | dose: 14.0 mg/kg/injection, schedule: Q04DX004 (ip), vehicle: Klucel (hydroxypropylcellulose) (HPC) 109 % of control | [13] 98 % of control | dose: 28.0 mg/kg/injection, schedule: Q04DX004 (ip), vehicle: Klucel (hydroxypropylcellulose) (HPC) 97 % of control | [8] 99 % of control and 100 % of control | [9] 94 % of control and 96 % of control | [10] 96 % of control and 103 % of control | [11] 87 % of control | dose: 800.0 mg/kg/injection, schedule: Q04DX004 (ip), vehicle: saline with Tween-80 110 % of control

CNc1ncn(-c2c(C)cccc2C)c(=O)n1
inactive: dose: 4.69 mg/kg/injection, schedule: Q04DX004 (ip), vehicle: saline with Tween-80 98 % of control | dose: 9.38 mg/kg/injection, schedule: Q04DX004 (ip), vehicle: saline with Tween-80 109 % of control | dose: 18.75 mg/kg/injection, schedule: Q04DX004 (ip), vehicle: saline with Tween-80 110 % of control | dose: 37.5 mg/kg/injection, schedule: Q04DX004 (ip), vehicle: saline with Tween-80 109 % of control | dose: 75.0 mg/kg/injection, schedule: Q04DX004 (ip), vehicle: saline with Tween-80 100 % of control and 105 % of control and 115 % of control | [1] 99 % of control | [2] 100 % of control | [3] 99 % of control

O=C1CN2CCN3CC(=O)NC(=O)[C@H]3[C@H]2C(=O)N1
inactive: dose: 28.13 mg/kg/injection, schedule: Q04DX004 (ip), vehicle: saline with Tween-80 101 % of control | dose: 56.25 mg/kg/injection, schedule: Q04DX004 (ip), vehicle: saline with Tween-80 98 % of control | dose: 112.5 mg/kg/injection, schedule: Q04DX004 (ip), vehicle: saline with Tween-80 93 % of control | dose: 225.0 mg/kg/injection, schedule: Q04DX004 (ip), vehicle: saline with Tween-80 92 % of control | dose: 450.0 mg/kg/injection, schedule: Q04DX004 (ip), vehicle: saline with Tween-80 91 % of control
